Test systems include HOP-92; OVCAR-8; SNB-19; RXF 393; Malme-3M; HL-60; SF-539; UACC-62; TK-10; CCRF-CEM; SK-OV-3; SR; HCC 2998; A549; A498; DU-145; MDA-MB-231; NCI/ADR-RES; T47D; Hs-578T.
Common to all, as to assay: NCI anticancer screen, dose series, 48 h

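Values below derive from 48-hour exposures of cells grown in 96-well plates, with endpoints linearly interpolated between the two concentrations bracketing the appropriate inhibition level. Abbreviation: GI50, concentration required for 50% inhibition of growth.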 Calls of active or inactive are those of the source. No stated cut-off is given here; in the data, active = GI50 up to about 1.1 µM and inactive = higher. Some results are limits rather than exact numbers.

As to `COc1ccc(Nc2nc3ccccc3nc2-c2cccs2)cc1`, the GI50 in the assay on HOP-92 was 51.5 µM (inactive); with OVCAR-8 it was > 100 µM (inactive); with SNB-19 it was > 100 µM (inactive); in the assay with RXF 393, > 100 µM (inactive); in the assay with Malme-3M, > 100 µM (inactive); with HL-60, 17.5 µM (inactive). In addition, the GI50 is > 100 µM (inactive) in the assay with SF-539; > 100 µM (inactive) in the assay with UACC-62; > 100 µM (inactive) with TK-10; > 100 µM (inactive) in the assay on CCRF-CEM; 40.5 µM (inactive) with SK-OV-3; 55 µM (inactive) with SR. Moreover, the GI50 is 75 µM (inactive) with HCC 2998, 80.4 µM (inactive) with A549 and 42.6 µM (inactive) in the assay on A498.

As to `O=C(/C(=C/c1ccc(O)cc1)c1ccccc1)c1ccccc1`, the GI50 in the assay on HOP-92 was 5.65 µM (inactive); in the assay on OVCAR-8, 27 µM (inactive); in the assay with Malme-3M it was 19 µM (inactive); in the assay with HL-60 it was 13.6 µM (inactive); in the assay with SF-539, 16.6 µM (inactive); in the assay with UACC-62, 14.1 µM (inactive). The GI50 is 16.2 µM (inactive) in the assay with TK-10; 20 µM (inactive) in the assay on CCRF-CEM; 20.8 µM (inactive) in the assay with SK-OV-3; 23.8 µM (inactive) in the assay on SR; 17.4 µM (inactive) with HCC 2998; 18 µM (inactive) in the assay with A549. Further, the GI50 with A498 is 17.9 µM (inactive).

With `CCCCCCCCCC/C=C/C=O`, the GI50 is > 100 µM (inactive) with HOP-92; > 100 µM (inactive) in the assay on OVCAR-8; > 100 µM (inactive) with SNB-19; > 100 µM (inactive) in the assay with RXF 393; > 100 µM (inactive) in the assay with Malme-3M; 56.1 µM (inactive) with HL-60. Moreover, the GI50 in the assay on SF-539, in the assay with UACC-62, with TK-10, in the assay with CCRF-CEM, in the assay with SK-OV-3 and in the assay with SR was > 100 µM (inactive) in each case. Further, the GI50 in the assay on HCC 2998, with A549 and with A498 was > 100 µM (inactive) each time.

Turning to `O=C(O)CCC(=O)N1C/C(=C\c2ccccc2)C(=O)/C(=C/c2ccccc2)C1`, the GI50 is 16.3 µM (inactive) with HOP-92; 3.09 µM (inactive) with OVCAR-8; 3.16 µM (inactive) with SNB-19; 3.67 µM (inactive) with RXF 393; 2.33 µM (inactive) in the assay on Malme-3M; 2.21 µM (inactive) with HL-60. In addition, the GI50 is 1.82 µM (inactive) with SF-539; 1.26 µM (inactive) with UACC-62; 9.1 µM (inactive) in the assay on TK-10; 1.03 µM (active) in the assay with CCRF-CEM; 12.7 µM (inactive) with SK-OV-3; 0.59 µM (active) in the assay with SR. In addition, the figures for the GI50 in the assay with HCC 2998, in the assay on A549 and with A498 were 2.17 µM (inactive), 19.1 µM (inactive) and 13.9 µM (inactive), respectively.

In the case of `C=CCOCC1C2CCC3(OCCO3)C21` (centres undefined), the GI50 with HOP-92, in the assay with DU-145, with OVCAR-8, with SNB-19, in the assay on RXF 393 and in the assay on Malme-3M was > 100 µM (inactive) throughout. Besides, the GI50 in the assay on SF-539 is > 100 µM (inactive); in the assay on UACC-62 it was 30.1 µM (inactive); in the assay on TK-10, > 100 µM (inactive); with CCRF-CEM, 99.5 µM (inactive); with MDA-MB-231 it was > 100 µM (inactive); in the assay with SK-OV-3, > 100 µM (inactive). Moreover, the GI50 with NCI/ADR-RES, with SR, in the assay with HCC 2998 and in the assay with A549 was > 100 µM (inactive) each time.

Turning to `C1CCC(OCc2nnn3c2CCC3)OC1` (centres undefined), the GI50 in the assay with HOP-92, in the assay with OVCAR-8, in the assay with RXF 393, in the assay with Malme-3M, in the assay on HL-60 and in the assay with SF-539 was > 100 µM (inactive) in each case. The GI50 with UACC-62, in the assay with TK-10, with CCRF-CEM, in the assay with SK-OV-3, in the assay with SR and in the assay with HCC 2998 was > 100 µM (inactive) each time. Besides, the GI50 in the assay on A549 is > 100 µM (inactive).

On to `CC(=O)N1OC(C)CC1Nc1ccc(Br)cc1` (centres undefined), for which the GI50 in the assay with HOP-92 was > 100 µM (inactive); in the assay with T47D, 1.34 µM (inactive); in the assay on DU-145, 0.493 µM (active); with OVCAR-8, > 100 µM (inactive); with SNB-19, > 100 µM (inactive); with RXF 393, > 100 µM (inactive). In addition, the GI50 is > 100 µM (inactive) with Malme-3M; > 100 µM (inactive) in the assay with Hs-578T; 1.95 µM (inactive) in the assay with HL-60; 5.77 µM (inactive) in the assay with SF-539; 88.3 µM (inactive) in the assay with UACC-62; 14.7 µM (inactive) in the assay with TK-10. Also, the GI50 with CCRF-CEM is 0.452 µM (active); in the assay on SK-OV-3, > 100 µM (inactive); in the assay with NCI/ADR-RES, > 100 µM (inactive); with SR, 1.42 µM (inactive); with HCC 2998 it was 3.05 µM (inactive); with A549 it was 9.12 µM (inactive). The GI50 with A498 was > 100 µM (inactive).

Regarding `COc1ccc2cc(/C=N\NC(=O)Nc3cccc4ccccc34)ccc2c1`, the GI50 in the assay on DU-145 was 58.2 µM (inactive); in the assay on OVCAR-8, 24 µM (inactive); in the assay with SNB-19 it was 22 µM (inactive); with RXF 393, 38.5 µM (inactive); with Malme-3M it was 97.7 µM (inactive); with Hs-578T, 30.5 µM (inactive). In addition, the GI50 in the assay with HL-60 is > 10 µM (inactive); in the assay on SF-539, 30.5 µM (inactive); with TK-10 it was 22 µM (inactive); in the assay on CCRF-CEM, 21.3 µM (inactive); with MDA-MB-231 it was 27 µM (inactive); in the assay with NCI/ADR-RES it was > 100 µM (inactive). For the same molecule, the GI50 in the assay with SR was 16.1 µM (inactive); in the assay with HCC 2998, > 100 µM (inactive); with A549 it was > 100 µM (inactive); in the assay on A498, 17.5 µM (inactive).

As for `Nc1c(/N=N/c2ccc(-c3ccc(/N=N/c4c(O)ccc5cc(S(=O)(=O)O)cc(S(=O)(=O)O)c45)cc3)cc2)c(S(=O)(=O)O)cc2cc(S(=O)(=O)O)c(/N=N/c3ccccc3)c(O)c12`, the GI50 is > 69.7 µM (inactive) in the assay with HOP-92; > 100 µM (inactive) in the assay with OVCAR-8; > 100 µM (inactive) in the assay with SNB-19; > 100 µM (inactive) with RXF 393; > 100 µM (inactive) in the assay on Malme-3M; 85.1 µM (inactive) with HL-60. In addition, the GI50 with SF-539, with UACC-62, in the assay on CCRF-CEM, in the assay with SK-OV-3, in the assay with NCI/ADR-RES and in the assay on HCC 2998 was > 100 µM (inactive) in each case. Besides, the GI50 was > 70.8 µM (inactive) in the assay on A549 and > 100 µM (inactive) with A498.

As to `CC(C)CCNC(=O)c1ccc(CNC(=O)/C=C/c2ccc(OCc3ccccc3)cc2)cc1`, the GI50 in the assay on HOP-92, with T47D, in the assay on DU-145, with OVCAR-8, in the assay with SNB-19 and in the assay with RXF 393 was > 100 µM (inactive) each time. For the same molecule, the GI50 in the assay on UACC-62, with CCRF-CEM, with MDA-MB-231, in the assay with SK-OV-3, in the assay with NCI/ADR-RES and in the assay on SR was > 100 µM (inactive) each time. For the same molecule, the GI50 with HCC 2998, in the assay on A549 and in the assay on A498 was > 100 µM (inactive) each time.

`C/C=C/c1cc2c(c(=O)o1)C(=O)[C@@H](O)[C@H](C)O2`: the GI50 is 16.9 µM (inactive) in the assay with HOP-92; 16.7 µM (inactive) in the assay with OVCAR-8; 19.5 µM (inactive) in the assay on SNB-19; 12.3 µM (inactive) in the assay on RXF 393; 17.3 µM (inactive) in the assay on Malme-3M; 4.32 µM (inactive) in the assay on HL-60. In addition, the GI50 was 18.6 µM (inactive) in the assay on SF-539; 17.5 µM (inactive) in the assay on UACC-62; 5.46 µM (inactive) with CCRF-CEM; 37.6 µM (inactive) in the assay on SK-OV-3; 15.9 µM (inactive) with NCI/ADR-RES; 10.3 µM (inactive) in the assay on HCC 2998. In addition, the GI50 is 19.7 µM (inactive) in the assay on A549 and 12 µM (inactive) in the assay with A498.

On to `c1ccc(C(NCC2CCO2)(c2ccccc2)c2ccccc2)cc1` (centres undefined), for which the GI50 is 13.9 µM (inactive) in the assay with HOP-92; 27.7 µM (inactive) in the assay with DU-145; 12.6 µM (inactive) in the assay with OVCAR-8; 13.7 µM (inactive) in the assay on SNB-19; 18.2 µM (inactive) with RXF 393; 18.7 µM (inactive) in the assay with Malme-3M. For the same molecule, the GI50 with HL-60 was 19.3 µM (inactive); in the assay with SF-539 it was 17.8 µM (inactive); in the assay on UACC-62, 14.7 µM (inactive); in the assay on TK-10, 13.8 µM (inactive); in the assay on CCRF-CEM, 33.3 µM (inactive); with MDA-MB-231, 28.3 µM (inactive). Moreover, the GI50 with SK-OV-3 was 19.7 µM (inactive); in the assay with NCI/ADR-RES, 14.1 µM (inactive); with SR, 36.3 µM (inactive); with HCC 2998 it was 16.9 µM (inactive); with A549, 15.2 µM (inactive); in the assay on A498, 19.2 µM (inactive).

`CC(C(=O)COCc1ccccc1)P1(=O)OC(C)(C)CN1C(C)(C)C` (centres undefined): the GI50 with HOP-92, in the assay with T47D, in the assay with DU-145, in the assay with OVCAR-8, in the assay with RXF 393 and in the assay on Hs-578T was > 100 µM (inactive) throughout. Further, the GI50 with HL-60, in the assay on SF-539, with UACC-62, in the assay with TK-10, in the assay on CCRF-CEM and with SK-OV-3 was > 100 µM (inactive) each time. Moreover, the GI50 in the assay on NCI/ADR-RES, with HCC 2998, in the assay on A549 and in the assay with A498 was > 100 µM (inactive) in each case.
